These results are taken from the Bradley open melting point set (2014).

With `CC(C)CCCC(C)C1CCC2C3CCC4CCCCC4(C)C3CCC12C` (stereo not drawn) [cholestane], the melting point amounted to 80 °C.

Consider `OCc1ccc(Br)cc1` [4-bromobenzyl alcohol], for which the melting point was found to be 78 °C.

In the case of `CCn1cc(C(=O)O)c(=O)c2ccc(C)nc21`, the melting point was 230 °C.

Take `O=C(Cl)c1ccccc1` [Benzoyl chloride]: the melting point was -1 °C.

For the compound `O=Cc1ccc(C(=O)O)cc1` [p-formyl_benzoic_acid], the melting point was 247 °C.

Compound `Cc1ccc(N2C(=O)C=CC2=O)cc1Cl` [N-(3-chloro-4-methylphenyl)maleimide] showed a melting point of 146 °C.

Turning to `Cc1cccc(C#N)c1` [m-tolunitrile], the melting point was -23 °C.

As for `O=C(O)CCSCCC(=O)O` [3,3'-thiodipropionic acid], the melting point turned out to be 131 °C.

Compound `N#Cc1ccccc1N` [2-aminobenzonitrile] returned a melting point of 48 °C.

Regarding `COC(=O)c1ccc2cc(Br)ccc2c1` [methyl 6-bromo-2-naphthoate], the melting point amounted to 122 °C.

`C=COC(C)=O` [vinyl acetate]: the melting point is -100 °C.

Compound `COC(=O)c1ccc(O)cc1` [methyl_4-hydroxybenzoate] displayed a melting point of 128 °C.

Compound `CC1(C(=O)O)CCCCC1` [1-Methylcyclohexanecarboxylic acid] displayed a melting point of 38 °C.

Regarding `CN1C(=O)OC(C)(C)C1=O` [3,5,5-trimethyloxazolidine-2,4-dione], the melting point turned out to be 47 °C.

In the case of `NC(=O)c1cccc([N+](=O)[O-])c1` [m-nitrobenzamide], the melting point amounted to 143 °C.

`CCn1cc(C(=O)O)c(=O)c2ccc(C)nc21` [nalidixic acid] had a melting point of 230 °C.

`N#CC1(C#N)C=C(c2ccccc2)c2ccccc21` [3-phenyl-1H-indene-1,1-dicarbonitrile] showed a melting point of 135 °C.

Turning to `Cc1cc(/C=C2\S/C(=N\c3ccccc3)N(C3CCCC3)C2=O)c(C)n1-c1ccc(C(F)(F)F)cc1` [OSM-S-54], the melting point was 71.5 °C.

In turn, `CC(CCC(=O)O)C1CCC2C3C(O)CC4CC(O)CCC4(C)C3CC(=O)C12C` (stereo not drawn) [3,7-dihydroxy-12-oxocholan-24-oic acid] returned a melting point of 221 °C.

In turn, `Cc1ccc(S(=O)(=O)CCCl)cc1` [2-chloroethyl p-tolyl sulfone] displayed a melting point of 79 °C.

In the case of `O=[N+]([O-])c1cccc2c(/C=N/c3ccccc3)cccc12` [N-[(1E)-(5-nitronaphthalen-1-yl)methylidene]aniline], the melting point was 84 °C.

As to `CC(=O)CC(=O)Nc1ccccc1` [3-Oxo-N-phenylbutanamide], the melting point was 86 °C.

The compound `Cc1cc(F)ccc1B(O)O` [4-fluoro-2-methylbenzeneboronic acid] gave a melting point of 200 °C.

For `OC(COc1ccccc1)COc1ccccc1` [1,3-diphenoxy-2-propanol], the melting point was determined as 82 °C.

Take `CC(=O)Nc1ccccc1` [acetanilide]: the melting point came out at 114 °C.

In turn, `CC12CCC(=O)CC1CCC1C2CCC2(C)C1CCC21OCCO1` (stereo not drawn) yielded a melting point of 188 °C.

For `N#C/C(=C\c1ccc(Cl)cc1)c1nc(-c2cccc3ccccc23)cs1`, the melting point was 131 °C.

For `C[C@@H]1O[C@@H](O[C@H]2C[C@@H](O)[C@]3(CO)[C@H]4[C@H](O)C[C@]5(C)[C@@H](C6=CC(=O)OC6)CC[C@]5(O)[C@@H]4CC[C@]3(O)C2)[C@H](O)[C@H](O)[C@H]1O` [Ouabain], the melting point turned out to be 200 °C.

As to `C=CCCCCCC` [1-octene], the melting point was -102 °C.

Take `Cc1cccc(O)c1` [m-Cresol]: the melting point was 11 °C.

The compound `N#CC(=Cc1cccc(O)c1)C1N=c2ccccc2=N1` registered a melting point of 300 °C.

Turning to `Nc1nc(=O)c2ncn(COC(CO)CO)c2[nH]1` [Ganciclovir], the melting point is 250 °C.

Take `O=C1c2c(O)ccc([N+](=O)[O-])c2C(=O)c2c([N+](=O)[O-])ccc(O)c21` [1,8-Dihydroxy-4,5-dinitro-9,10-anthraquinone]: the melting point is 225 °C.

For orientation: melting point means the temperature, or range, at which the solid turns liquid.
